Test [1] has as its system Cabbage Looper (Trichoplusia ni) ("CL"), second instar larvae. As to the kind of experiment: Bioassay on cabbage looper (CL), 128-well diet tray assay. Type of test: in vivo. The following applies: for pest or weed control at 50 µg/cm2: Trichoplusia ni; for CL rating: Table ABC, species CL, C = not tested, D = no activity noticed. A digest of the protocol:
(§1)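 Each value represents average percent mortality from eight wells. Larvae were kept in clear-covered trays at 25° C. for five to seven days on a 14-hour light, 10-hour dark schedule before scoring.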

For test [2], the system named is Beet Armyworm (Spodoptera exigua) ("BAW"), second instar larvae. The test is described as follows: Bioassay on beet armyworm (BAW), 128-well diet tray assay. Type of test: in vivo. The following applies: for pest or weed control at 50 µg/cm2: Spodoptera exigua; for BAW rating: Table ABC, species BAW, C = not tested, D = no activity noticed. A digest of the protocol:
as §1

Setting [3] is: read-out: CL (Biological Results, rating).
Setting [4] is: read-out: BAW (Biological Results, rating).

Where two headings read alike, the source gives them in different places.

On to `COC(C)c1ccc(C)cc1N1C(=O)CS/C1=N\C(=O)Nc1ccc(-c2ncn(-c3ccc(OCC#N)cc3)n2)cc1C` (centres unmarked) [Compound J358, (Z)-1-(4-(1-(4-(Cyanomethoxy)phenyl)-1H-1,2,4-triazol-3-yl)-2-methylphenyl)-3-(3-(2-(1-methoxyethyl)-5-methylphenyl)-4-oxothiazolidin-2-ylidene)urea], for which the pest or weed control at 50 µg/cm2 in test [1] (read-out: CL rating) and in test [2] (read-out: BAW rating) was 50 to 100% each time.
As for `Cc1ccc(C(C)C)c(N2C(=O)CS/C2=N\C(=O)Nc2ccc(-c3ncn(-c4ccc(C(F)(F)F)cc4)n3)c(C)c2)c1` [Compound J4, (Z)-1-(3-(2-Isopropyl-5-methylphenyl)-4-oxothiazolidin-2-ylidene)-3-(3-methyl-4-(1-(4-(trifluoromethyl)phenyl)-1H-1,2,4-triazol-3-yl)phenyl)urea], the pest or weed control at 50 µg/cm2 in test [1] (setting [3]) and in test [2] (setting [4]) was 50 to 100% each time.
With `Cc1ccc(COCC(F)(F)F)c(N2C(=O)CS/C2=N\C(=O)Nc2ccc(-c3ncn(-c4ccc(S(F)(F)(F)(F)F)cc4)n3)cc2C)c1` [Compound J549], the CL rating entry in test [1] is given as “A (50-100)”. The BAW rating result in test [2] was “A (50-100)”.
On to `Cc1ccc(COCc2c(F)c(F)c(F)c(F)c2F)c(N2C(=O)CS/C2=N\C(=O)Nc2ccc(-c3ncn(-c4ccc(OC(F)(F)F)cc4)n3)cc2F)c1` [Compound J622, (Z)-1-(2-Fluoro-4-(1-(4-(trifluoromethoxy)phenyl)-1H-1,2,4-triazol-3-yl)phenyl)-3-(3-(5-methyl-2-(((perfluorophenyl)methoxy)methyl)phenyl)-4-oxothiazolidin-2-ylidene)urea], for which the pest or weed control at 50 µg/cm2 in test [1] (read-out: CL rating) and in test [2] (read-out: BAW rating) was 50 to 100% each time.
As to `CC(C)c1ccc(N(C)C)cc1N1C(=O)CS/C1=N\C(=O)Nc1ccc(-c2ncn(-c3ccc(C(F)(F)F)cn3)n2)cc1` [Compound J339], the “CL (Biological Results, rating)” value in test [1] (Cabbage Looper (Trichoplusia ni), C = Not Tested) is given as “A (50-100)”. Also, the “BAW (Biological Results, rating)” value in test [2] (Beet Armyworm (Spodoptera exigua), C = Not Tested) is “A (50-100)”.
`CCCc1ccc(C)cc1N1C(=O)CS/C1=N\C(=O)Nc1ccc(-c2ncn(-c3ccc(S(F)(F)(F)(F)F)cc3)n2)cc1C#N` [Compound J583, (Z)-1-(2-Cyano-4-(1-(4-(pentafluoro-λ^6-sulfaneyl)phenyl)-1H-1,2,4-triazol-3-yl)phenyl)-3-(3-(5-methyl-2-propylphenyl)-4-oxothiazolidin-2-ylidene)urea]: the pest or weed control at 50 µg/cm2 in test [1] (read-out: CL rating) and in test [2] (read-out: BAW rating) was 50 to 100% each time.
Turning to `Cc1ccc(C(C)C)c(N2C(=O)CS/C2=N\C(=O)Nc2ccc(-c3cn(-c4ccc(C(F)(F)F)cn4)cn3)cc2)c1` [Compound J519, (Z)-1-(3-(2-Isopropyl-5-methylphenyl)-4-oxothiazolidin-2-ylidene)-3-(4-(1-(5-(trifluoromethyl)pyridin-2-yl)-1H-imidazol-4-yl)phenyl)urea], the pest or weed control at 50 µg/cm2 in test [1] (read-out: CL rating) and in test [2] (read-out: BAW rating) was 50 to 100% in each case.
`Cc1ccc(C(C)C)c(N2C(=O)CS/C2=N\C(=O)Nc2ccc(-c3ncn(-c4ccc(OC(F)(F)F)cc4)n3)c(C)c2)c1` [Compound J23, (Z)-1-(3-(2-Isopropyl-5-methylphenyl)-4-oxothiazolidin-2-ylidene)-3-(3-methyl-4-(1-(4-(trifluoromethoxy)phenyl)-1H-1,2,4-triazol-3-yl)phenyl)urea]: the pest or weed control at 50 µg/cm2 in test [1] (setting [3]) and in test [2] (setting [4]) was 50 to 100% in each case.
Take `Cc1ccc(OCC(F)(F)F)c(N2C(=O)CS/C2=N\C(=O)Nc2ccc(-c3ncn(-c4ccc(OC(F)(F)F)cc4)n3)cc2C(F)(F)F)c1` [Compound J115, (Z)-1-(3-(5-Methyl-2-(2,2,2-trifluoroethoxy)phenyl)-4-oxothiazolidin-2-ylidene)-3-(4-(1-(4-(trifluoromethoxy)phenyl)-1H-1,2,4-triazol-3-yl)-2-(trifluoromethyl)phenyl)urea]: the pest or weed control at 50 µg/cm2 in test [1] (setting [3]) and in test [2] (setting [4]) was 50 to 100% throughout.
For the compound `CC(C)c1cc(-c2ncn(-c3ccc(OC(F)(F)F)cc3)n2)ccc1NC(=O)/N=C1\SCC(=O)N1c1cc(N(C)C)ccc1OCCC(F)(F)F` [Compound J111, (Z)-1-(3-(5-(Dimethylamino)-2-(3,3,3-trifluoropropoxy)phenyl)-4-oxothiazolidin-2-ylidene)-3-(2-isopropyl-4-(1-(4-(trifluoromethoxy)phenyl)-1H-1,2,4-triazol-3-yl)phenyl)urea], the pest or weed control at 50 µg/cm2 in test [1] (setting [3]) and in test [2] (setting [4]) was 50 to 100% each time.
Turning to `Cc1ccc(COCC(F)(F)F)c(N2C(=O)CS/C2=N\C(=O)Nc2ccc(-c3ncn(-c4ccc(OC(F)(F)C(F)(F)F)cc4)n3)cc2F)c1` [Compound J662], the CL rating result in test [1] is reported as “A (50-100)”. In test [2], the BAW rating entry is “A (50-100)”.
Take `CN(C)c1ccc(C(F)(F)F)c(N2C(=O)CS/C2=N\C(=O)Nc2ccc(-c3ncn(-c4ccc(OC(F)(F)F)cn4)n3)cc2F)c1` [Compound J262, (Z)-1-(3-(5-(Dimethylamino)-2-(trifluoromethyl)phenyl)-4-oxothiazolidin-2-ylidene)-3-(2-fluoro-4-(1-(5-(trifluoromethoxy)pyridin-2-yl)-1H-1,2,4-triazol-3-yl)phenyl)urea]: the pest or weed control at 50 µg/cm2 in test [1] (setting [3]) and in test [2] (setting [4]) was 50 to 100% throughout.
Take `Cc1ccc(C(C)C)c(N2C(=O)CS/C2=N\C(=O)Nc2c(F)cc(-c3ncn(-c4ccc(OC(F)(F)F)cc4)n3)cc2F)c1` [Compound J78, (Z)-1-(2,6-Difluoro-4-(1-(4-(trifluoromethoxy)phenyl)-1H-1,2,4-triazol-3-yl)phenyl)-3-(3-(2-isopropyl-5-methylphenyl)-4-oxothiazolidin-2-ylidene)urea]: the pest or weed control at 50 µg/cm2 in test [1] (setting [3]) and in test [2] (setting [4]) was 50 to 100% in each case.
Take `Cc1ccc(COCC(F)(F)F)c(N2C(=O)CS/C2=N\C(=O)Nc2ccc(-c3nnn(-c4ccc(OC(F)(F)F)cc4)n3)cc2)c1` [Compound J767, (Z)-1-(3-(5-Methyl-2-((2,2,2-trifluoroethoxy)methyl)phenyl)-4-oxothiazolidin-2-ylidene)-3-(4-(2-(4-(trifluoromethoxy)phenyl)-2H-tetrazol-5-yl)phenyl)urea]: the pest or weed control at 50 µg/cm2 in test [1] (read-out: CL rating) and in test [2] (read-out: BAW rating) was 50 to 100% in each case.
For `CCCc1ccc(N(C)C)cc1N1C(=O)CS/C1=N\C(=O)Nc1ccc(-c2ncn(-c3ccc(OC(F)(F)F)cc3)n2)cc1C#N` [Compound J247, (Z)-1-(2-Cyano-4-(1-(4-(trifluoromethoxy)phenyl)-1H-1,2,4-triazol-3-yl)phenyl)-3-(3-(5-(dimethylamino)-2-propylphenyl)-4-oxothiazolidin-2-ylidene)urea], the pest or weed control at 50 µg/cm2 in test [1] (setting [3]) and in test [2] (setting [4]) was 50 to 100% throughout.
On to `CCN(C(C)=O)c1ccc(C(C)C)c(N2C(=O)CS/C2=N\C(=O)Nc2ccc(-c3ncn(-c4ccc(OC(F)(F)F)cc4)n3)cc2C)c1` [Compound J200, (Z)-N-Ethyl-N-(4-isopropyl-3-(2-(((2-methyl-4-(1-(4-(trifluoromethoxy)phenyl)-1H-1,2,4-triazol-3-yl)phenyl)carbamoyl)imino)-4-oxothiazolidin-3-yl)phenyl)acetamide], for which the pest or weed control at 50 µg/cm2 in test [1] (setting [3]) and in test [2] (setting [4]) was 50 to 100% throughout.
